What follows are compounds tested on HT-29 (assay: Cytotoxicity against human HT-29 cells after 96 hrs by sulforhodamine-B assay). Settings: HT-29, 96 h.
Format: functional, cell-based

Row | Structure (SMILES) | EC50
1 | CCCCN(CC(=O)NCc1ccccc1)C(=O)[C@]12CCC(C)(C)C[C@H]1C1=CC[C@@H]3[C@@]4(C)CC[C@H](OC(C)=O)C(C)(C)[C@@H]4CC[C@@]3(C)[C@]1(C)CC2 | > 30 µM
2 | CCCCNC(=O)CN(Cc1ccoc1)C(=O)[C@]12CCC(C)(C)C[C@H]1C1=CC[C@@H]3[C@@]4(C)CC[C@H](O)C(C)(C)[C@@H]4CC[C@@]3(C)[C@]1(C)CC2 | 15.9 µM
3 | CCCCNC(=O)CN(Cc1ccccc1)C(=O)[C@]12CCC(C)(C)C[C@H]1C1=CC[C@@H]3[C@@]4(C)CC[C@H](O)C(C)(C)[C@@H]4CC[C@@]3(C)[C@]1(C)CC2 | > 30 µM
4 | CC(=O)O[C@H]1CC[C@]2(C)[C@H]3CC=C4[C@@H]5CC(C)(C)CC[C@]5(C(=O)N(CC(=O)NCc5ccccc5)C(C)C)CC[C@@]4(C)[C@]3(C)CC[C@H]2C1(C)C | 14.1 µM
5 | CC(=O)O[C@H]1CC[C@]2(C)[C@H]3CC=C4[C@@H]5CC(C)(C)CC[C@]5(C(=O)N(CC(=O)NC(C)(C)C)Cc5cccc(F)c5)CC[C@@]4(C)[C@]3(C)CC[C@H]2C1(C)C | > 30 µM

These compounds were tested on MCF7 (assay: Cytotoxicity against human MCF7 cells after 96 hrs by sulforhodamine-B assay). Settings: MCF7, 96 h.
Format: functional, cell-based

Row | Structure (SMILES) | EC50
6 | CCCCN(CC(=O)NCc1ccccc1)C(=O)[C@]12CCC(C)(C)C[C@H]1C1=CC[C@@H]3[C@@]4(C)CC[C@H](OC(C)=O)C(C)(C)[C@@H]4CC[C@@]3(C)[C@]1(C)CC2 | > 30 µM
7 | CCCCNC(=O)CN(Cc1ccoc1)C(=O)[C@]12CCC(C)(C)C[C@H]1C1=CC[C@@H]3[C@@]4(C)CC[C@H](O)C(C)(C)[C@@H]4CC[C@@]3(C)[C@]1(C)CC2 | 15.5 µM
8 | CCCCNC(=O)CN(Cc1ccccc1)C(=O)[C@]12CCC(C)(C)C[C@H]1C1=CC[C@@H]3[C@@]4(C)CC[C@H](O)C(C)(C)[C@@H]4CC[C@@]3(C)[C@]1(C)CC2 | > 30 µM
9 | CC(=O)O[C@H]1CC[C@]2(C)[C@H]3CC=C4[C@@H]5CC(C)(C)CC[C@]5(C(=O)N(CC(=O)NCc5ccccc5)C(C)C)CC[C@@]4(C)[C@]3(C)CC[C@H]2C1(C)C | 9.7 µM
10 | CC(=O)O[C@H]1CC[C@]2(C)[C@H]3CC=C4[C@@H]5CC(C)(C)CC[C@]5(C(=O)N(CC(=O)NC(C)(C)C)Cc5cccc(F)c5)CC[C@@]4(C)[C@]3(C)CC[C@H]2C1(C)C | > 30 µM

Each compound was assayed on 518A2 (assay: Cytotoxicity against human 518A2 cells after 96 hrs by sulforhodamine-B assay). Settings: 518A2, 96 h.
Format: functional, cell-based

Row | Structure (SMILES) | EC50
11 | CCCCN(CC(=O)NCc1ccccc1)C(=O)[C@]12CCC(C)(C)C[C@H]1C1=CC[C@@H]3[C@@]4(C)CC[C@H](OC(C)=O)C(C)(C)[C@@H]4CC[C@@]3(C)[C@]1(C)CC2 | 8.2 µM
12 | CCCCNC(=O)CN(Cc1ccoc1)C(=O)[C@]12CCC(C)(C)C[C@H]1C1=CC[C@@H]3[C@@]4(C)CC[C@H](O)C(C)(C)[C@@H]4CC[C@@]3(C)[C@]1(C)CC2 | > 30 µM
13 | CCCCNC(=O)CN(Cc1ccccc1)C(=O)[C@]12CCC(C)(C)C[C@H]1C1=CC[C@@H]3[C@@]4(C)CC[C@H](O)C(C)(C)[C@@H]4CC[C@@]3(C)[C@]1(C)CC2 | > 30 µM
14 | CC(=O)O[C@H]1CC[C@]2(C)[C@H]3CC=C4[C@@H]5CC(C)(C)CC[C@]5(C(=O)N(CC(=O)NCc5ccccc5)C(C)C)CC[C@@]4(C)[C@]3(C)CC[C@H]2C1(C)C | 20.9 µM
15 | CC(=O)O[C@H]1CC[C@]2(C)[C@H]3CC=C4[C@@H]5CC(C)(C)CC[C@]5(C(=O)N(CC(=O)NC(C)(C)C)Cc5cccc(F)c5)CC[C@@]4(C)[C@]3(C)CC[C@H]2C1(C)C | > 30 µM

What follows are compounds tested on A2780 (assay: Cytotoxicity against human A2780 cells after 96 hrs by sulforhodamine-B assay). Settings: A2780, 96 h.
Format: functional, cell-based

Row | Structure (SMILES) | EC50
16 | CCCCN(CC(=O)NCc1ccccc1)C(=O)[C@]12CCC(C)(C)C[C@H]1C1=CC[C@@H]3[C@@]4(C)CC[C@H](OC(C)=O)C(C)(C)[C@@H]4CC[C@@]3(C)[C@]1(C)CC2 | 4.4 µM
17 | CCCCNC(=O)CN(Cc1ccoc1)C(=O)[C@]12CCC(C)(C)C[C@H]1C1=CC[C@@H]3[C@@]4(C)CC[C@H](O)C(C)(C)[C@@H]4CC[C@@]3(C)[C@]1(C)CC2 | 17.6 µM
18 | CCCCNC(=O)CN(Cc1ccccc1)C(=O)[C@]12CCC(C)(C)C[C@H]1C1=CC[C@@H]3[C@@]4(C)CC[C@H](O)C(C)(C)[C@@H]4CC[C@@]3(C)[C@]1(C)CC2 | > 30 µM
19 | CC(=O)O[C@H]1CC[C@]2(C)[C@H]3CC=C4[C@@H]5CC(C)(C)CC[C@]5(C(=O)N(CC(=O)NCc5ccccc5)C(C)C)CC[C@@]4(C)[C@]3(C)CC[C@H]2C1(C)C | 8.3 µM
20 | CC(=O)O[C@H]1CC[C@]2(C)[C@H]3CC=C4[C@@H]5CC(C)(C)CC[C@]5(C(=O)N(CC(=O)NC(C)(C)C)Cc5cccc(F)c5)CC[C@@]4(C)[C@]3(C)CC[C@H]2C1(C)C | 10.4 µM

What follows are compounds tested on A549 (assay: Cytotoxicity against human A549 cells after 96 hrs by sulforhodamine-B assay). Settings: A549, 96 h.
Format: functional, cell-based

Row | Structure (SMILES) | EC50
21 | CCCCN(CC(=O)NCc1ccccc1)C(=O)[C@]12CCC(C)(C)C[C@H]1C1=CC[C@@H]3[C@@]4(C)CC[C@H](OC(C)=O)C(C)(C)[C@@H]4CC[C@@]3(C)[C@]1(C)CC2 | > 30 µM
22 | CC(=O)O[C@H]1CC[C@]2(C)[C@H]3CC=C4[C@@H]5CC(C)(C)CC[C@]5(C(=O)N(CC(=O)NCc5ccccc5)C(C)C)CC[C@@]4(C)[C@]3(C)CC[C@H]2C1(C)C | 14.9 µM
23 | CC(=O)O[C@H]1CC[C@]2(C)[C@H]3CC=C4[C@@H]5CC(C)(C)CC[C@]5(C(=O)N(CC(=O)NC(C)(C)C)Cc5cccc(F)c5)CC[C@@]4(C)[C@]3(C)CC[C@H]2C1(C)C | > 30 µM

These compounds were tested on FaDu (assay: Cytotoxicity against human FADU cells after 96 hrs by sulforhodamine-B assay). Settings: not given.
Format: functional, cell-based

Row | Structure (SMILES) | EC50
24 | CCCCN(CC(=O)NCc1ccccc1)C(=O)[C@]12CCC(C)(C)C[C@H]1C1=CC[C@@H]3[C@@]4(C)CC[C@H](OC(C)=O)C(C)(C)[C@@H]4CC[C@@]3(C)[C@]1(C)CC2 | 19.8 µM
25 | CCCCNC(=O)CN(Cc1ccoc1)C(=O)[C@]12CCC(C)(C)C[C@H]1C1=CC[C@@H]3[C@@]4(C)CC[C@H](O)C(C)(C)[C@@H]4CC[C@@]3(C)[C@]1(C)CC2 | > 30 µM
26 | CCCCNC(=O)CN(Cc1ccccc1)C(=O)[C@]12CCC(C)(C)C[C@H]1C1=CC[C@@H]3[C@@]4(C)CC[C@H](O)C(C)(C)[C@@H]4CC[C@@]3(C)[C@]1(C)CC2 | > 30 µM
27 | CC(=O)O[C@H]1CC[C@]2(C)[C@H]3CC=C4[C@@H]5CC(C)(C)CC[C@]5(C(=O)N(CC(=O)NCc5ccccc5)C(C)C)CC[C@@]4(C)[C@]3(C)CC[C@H]2C1(C)C | 10.1 µM
28 | CC(=O)O[C@H]1CC[C@]2(C)[C@H]3CC=C4[C@@H]5CC(C)(C)CC[C@]5(C(=O)N(CC(=O)NC(C)(C)C)Cc5cccc(F)c5)CC[C@@]4(C)[C@]3(C)CC[C@H]2C1(C)C | > 30 µM

Each compound was assayed on NIH3T3 (assay: Cytotoxicity against mouse NIH/3T3 cells after 96 hrs by sulforhodamine-B assay). Settings: NIH3T3, 96 h.
Format: cell-based

Row | Structure (SMILES) | EC50
29 | CCCCN(CC(=O)NCc1ccccc1)C(=O)[C@]12CCC(C)(C)C[C@H]1C1=CC[C@@H]3[C@@]4(C)CC[C@H](OC(C)=O)C(C)(C)[C@@H]4CC[C@@]3(C)[C@]1(C)CC2 | > 30 µM
30 | CCCCNC(=O)CN(Cc1ccoc1)C(=O)[C@]12CCC(C)(C)C[C@H]1C1=CC[C@@H]3[C@@]4(C)CC[C@H](O)C(C)(C)[C@@H]4CC[C@@]3(C)[C@]1(C)CC2 | > 30 µM
31 | CCCCNC(=O)CN(Cc1ccccc1)C(=O)[C@]12CCC(C)(C)C[C@H]1C1=CC[C@@H]3[C@@]4(C)CC[C@H](O)C(C)(C)[C@@H]4CC[C@@]3(C)[C@]1(C)CC2 | > 30 µM
32 | CC(=O)O[C@H]1CC[C@]2(C)[C@H]3CC=C4[C@@H]5CC(C)(C)CC[C@]5(C(=O)N(CC(=O)NCc5ccccc5)C(C)C)CC[C@@]4(C)[C@]3(C)CC[C@H]2C1(C)C | 10.2 µM
33 | CC(=O)O[C@H]1CC[C@]2(C)[C@H]3CC=C4[C@@H]5CC(C)(C)CC[C@]5(C(=O)N(CC(=O)NC(C)(C)C)Cc5cccc(F)c5)CC[C@@]4(C)[C@]3(C)CC[C@H]2C1(C)C | > 30 µM

— ChEMBL document CHEMBL4196076, “An access to a library of novel triterpene derivatives with a promising pharmacological potential by Ugi and Passerini multicomponent reactions” (Eur J Med Chem, 2018)
